Laboratory results taken from ChEMBL document CHEMBL1201862, “PubChem BioAssay data set” (2004).
The source made the active and inactive calls.

What was measured:
cells [1] = assay: cells
[2] = Luminescence-based cell-based high throughput dose response assay to identify activators of the DAF-12 from the parasite S. stercoralis (ssDAF-12).; format: functional
[3] = biological target: T1, Oxysterols receptor LXR-beta (Homo sapiens, UniProt P55055); format: functional, cell-based;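 note: Cell-based luminescence dose-response assay of agonist activity at LXR, run as a confirmatory counterscreen to a daf-12 agonist screen; agonist potency from rising luciferase signal of a Gal4-LXR reporter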
T1 sequence (P55055 whole entry): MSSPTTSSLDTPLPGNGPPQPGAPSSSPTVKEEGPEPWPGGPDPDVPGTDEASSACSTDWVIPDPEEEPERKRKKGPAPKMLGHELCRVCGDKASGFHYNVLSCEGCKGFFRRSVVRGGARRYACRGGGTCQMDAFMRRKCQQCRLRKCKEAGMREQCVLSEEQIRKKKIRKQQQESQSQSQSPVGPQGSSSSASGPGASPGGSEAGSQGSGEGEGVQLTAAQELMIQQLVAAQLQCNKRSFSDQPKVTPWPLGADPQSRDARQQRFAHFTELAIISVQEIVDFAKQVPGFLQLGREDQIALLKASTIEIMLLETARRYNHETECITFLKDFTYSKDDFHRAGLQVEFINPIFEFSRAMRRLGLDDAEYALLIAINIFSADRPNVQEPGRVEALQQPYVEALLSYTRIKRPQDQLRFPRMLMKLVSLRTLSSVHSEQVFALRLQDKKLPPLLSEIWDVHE

[4] = biological target: T1, Oxysterols receptor LXR-beta; assay: LXR agonists, Gal4 luciferase reporter, dose response, counter-screen for ssDAF-12 agonist project, cell-based, luminescence, HEK293, S. stercoralis campaign (AID 720737); format: functional; conditions: read-out: IC50 (the source's name)
[5] = blockade of melanocortin 4 receptor signaling – cell-based, plate reader, cherry pick, counter-screen for LGR2 antagonist project, dose response (AID 743444); format: functional;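 note: transfected HEK 293 cells stimulated with alpha-MSH peptide; potency of inhibitors of the alpha-MSH evoked signal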
HEK293 = assay: EBV LMP1 TES2 canonical NF-kB signalling blockers – cell-based, HEK293, luciferase, cherry-pick, dose response (AID 588343); format: functional; conditions: Homo sapiens
[6] = blockers of bursicon-stimulated LGR2 cAMP reporter – cell-based, HEK293, CRE-luciferase reporter, cherry pick, set 2, dose response (AID 743343); format: functional;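 note: transfected cells were stimulated with diluted bursicon conditioned medium after compound addition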
[7] = biological target: Luciferin 4-monooxygenase (Photinus pyralis, UniProt P08659); assay: inhibition of purified Photinus pyralis luciferase – biochemical, luminescence, dose response (AID 1891)
Chain of Luciferin 4-monooxygenase (P08659 whole entry): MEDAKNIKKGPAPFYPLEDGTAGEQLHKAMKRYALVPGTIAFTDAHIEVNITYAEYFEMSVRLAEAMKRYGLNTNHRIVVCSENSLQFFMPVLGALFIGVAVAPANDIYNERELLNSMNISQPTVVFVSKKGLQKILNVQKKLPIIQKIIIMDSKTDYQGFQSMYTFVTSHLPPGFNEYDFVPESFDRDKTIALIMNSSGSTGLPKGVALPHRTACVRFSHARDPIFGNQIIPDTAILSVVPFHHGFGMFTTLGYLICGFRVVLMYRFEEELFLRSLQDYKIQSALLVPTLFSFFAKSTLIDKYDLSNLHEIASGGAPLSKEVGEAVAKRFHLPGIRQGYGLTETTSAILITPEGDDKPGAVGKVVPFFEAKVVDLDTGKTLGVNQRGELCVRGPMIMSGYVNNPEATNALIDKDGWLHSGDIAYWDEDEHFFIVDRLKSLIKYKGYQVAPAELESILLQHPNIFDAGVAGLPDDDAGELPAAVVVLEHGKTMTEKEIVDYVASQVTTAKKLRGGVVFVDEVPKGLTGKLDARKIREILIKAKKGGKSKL

[8] = A549 cell cytotoxicity, dose response, cytotoxicity control, plate reader, cherry-pick, antagonist series (AID 743412); format: functional, cell-based
[9] = toxicity toward HepG2 liver cells – cell-based, plate reader, cherry-pick, antagonist series, cytotoxicity control, dose response (AID 743416); format: functional
[10] = viability loss in HEK293 cells – cell-based, plate reader, cherry-picked samples, cytotoxicity control, dose response (AID 743446); format: functional
[11] = Luminescence Cell-Based Dose Confirmation HTS to Identify Inhibitors of Platelet Dense Granule Release. [Related pubchem assays: 1663 (Primary HTS), 1678 (Summary of Project)]; format: functional
[12] = HGIII-sPLA2 enzyme inhibition potency – biochemical, QFRET, IC50, dose response (AID 743457);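 note: green fluorescence rise as the enzyme cleaves BODIPY PC-A2 in liposomes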
Prothrombin = Prothrombin (Homo sapiens, UniProt P00734); assay: Thrombin 1536 HTS Dose Response Confirmation. [Related pubchem assays: 1046 (Thrombin 1536 HTS; hits were confirmed in this assay)]; format: functional
[13] = biological target: Eukaryotic translation initiation factor 4E (Mus musculus, UniProt P63073); assay: blockers of eIF4G binding by eIF4E – biochemical, TR-FRET, dose response (AID 855); format: functional;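 note: potency for disrupting eIF4E binding to eIF4GI seen as loss of FRET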
Chain of Eukaryotic translation initiation factor 4E (P63073 whole entry): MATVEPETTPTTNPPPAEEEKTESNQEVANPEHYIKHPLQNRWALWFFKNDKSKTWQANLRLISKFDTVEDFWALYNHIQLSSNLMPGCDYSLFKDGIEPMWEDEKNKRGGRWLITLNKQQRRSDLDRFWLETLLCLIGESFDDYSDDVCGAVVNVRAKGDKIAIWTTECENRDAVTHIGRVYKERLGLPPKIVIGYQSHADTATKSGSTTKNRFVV

cells [14] = format: functional
[15] = HepG2 cell cytotoxicity, dose response, cytotoxicity control for non-replicating M. tuberculosis project (AID 489018); format: functional; conditions: Mycobacterium tuberculosis
Bcl-2-like protein 10 = biological target: T2, Bcl-2-like protein 10 (Homo sapiens, UniProt Q9HD36); assay: Bcl-B/TR3 peptide binding disruption – biochemical, fluorescence polarization, FITC-TR3 peptide, selectivity assay for Bfl-1 inhibitor project, primary screen (AID 748);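 note: fluorescence polarization from a fluorescein-labelled TR3 peptide binding purified Bcl-B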
T2 sequence (Q9HD36 whole entry): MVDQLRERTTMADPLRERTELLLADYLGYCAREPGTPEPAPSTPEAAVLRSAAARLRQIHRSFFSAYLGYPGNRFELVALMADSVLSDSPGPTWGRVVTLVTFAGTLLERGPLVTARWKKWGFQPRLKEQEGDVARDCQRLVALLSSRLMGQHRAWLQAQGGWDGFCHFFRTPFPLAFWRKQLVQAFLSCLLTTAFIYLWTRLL

[16] = P. falciparum Dd2 growth inhibitors, dose response, SYBR Green, cherry-picked samples (AID 1159567); format: functional, cell-based
[17] = toxicity to human hepatoma HepG2 cells – cell-based, cherry-picked samples, cytotoxicity control, dose response (AID 1159577); format: functional
[18] = growth inhibition of PfATP4-mutant resistant parasites – NITD609-resistant line, SYBR Green, dry powder, dose response (AID 1159571); format: functional, cell-based;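 note: parasites synchronized at ring stage by sorbitol before testing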
[19] = Dd2 malaria parasite growth inhibition potency – SYBR Green, dry powder samples, dose response (AID 1159566); format: functional, cell-based;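 note: potency for growth inhibition with lower SYBR green DNA signal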
[20] = growth inhibition of yeast DHODH-expressing 3D7 parasites – SYBR Green, dry powder samples, dose response (AID 1159570); format: functional, cell-based;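 note: parasite growth measured after 72 hours of compound exposure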
Protein Tat = biological target: T3, Protein Tat (Human immunodeficiency virus type 1 group M subtype B (isolate HXB2)(HIV-1), UniProt P04608); format: functional;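 note: tat binding to TAR RNA read out by fluorescence polarization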
T3 sequence (P04608 whole entry): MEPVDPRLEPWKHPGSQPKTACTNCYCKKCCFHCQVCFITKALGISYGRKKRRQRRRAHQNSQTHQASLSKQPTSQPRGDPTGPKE

[21] = biological target: 5-hydroxytryptamine receptor 2A (Mus musculus, UniProt P35363); format: functional, cell-based;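 note: CHO-K1 cells with tagged receptor and beta-arrestin; agonist potency measured as compound-induced activation of the receptor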
Chain of 5-hydroxytryptamine receptor 2A (P35363 whole entry): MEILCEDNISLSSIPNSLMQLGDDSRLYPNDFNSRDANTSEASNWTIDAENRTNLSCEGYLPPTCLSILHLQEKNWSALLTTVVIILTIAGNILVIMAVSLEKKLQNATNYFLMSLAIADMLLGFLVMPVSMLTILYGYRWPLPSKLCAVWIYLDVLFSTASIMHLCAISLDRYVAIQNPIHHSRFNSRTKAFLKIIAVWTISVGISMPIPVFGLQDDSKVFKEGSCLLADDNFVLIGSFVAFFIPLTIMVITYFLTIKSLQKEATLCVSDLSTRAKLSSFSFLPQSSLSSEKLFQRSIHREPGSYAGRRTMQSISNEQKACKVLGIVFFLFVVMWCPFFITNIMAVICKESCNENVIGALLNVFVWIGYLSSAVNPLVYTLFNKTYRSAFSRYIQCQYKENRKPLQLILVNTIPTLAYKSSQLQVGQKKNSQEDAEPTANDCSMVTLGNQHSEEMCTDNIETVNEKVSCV

[22] = biological target: T4, Rac GTPase-activating protein 1 (Homo sapiens, UniProt Q9H0H5); assay: blockers of MgcRacGAP-driven Rac1 GTP hydrolysis – biochemical, ADP Hunter fluorescence, primary and confirmatory, confirmation (AID 624330); format: functional
T4 sequence (Q9H0H5 whole entry): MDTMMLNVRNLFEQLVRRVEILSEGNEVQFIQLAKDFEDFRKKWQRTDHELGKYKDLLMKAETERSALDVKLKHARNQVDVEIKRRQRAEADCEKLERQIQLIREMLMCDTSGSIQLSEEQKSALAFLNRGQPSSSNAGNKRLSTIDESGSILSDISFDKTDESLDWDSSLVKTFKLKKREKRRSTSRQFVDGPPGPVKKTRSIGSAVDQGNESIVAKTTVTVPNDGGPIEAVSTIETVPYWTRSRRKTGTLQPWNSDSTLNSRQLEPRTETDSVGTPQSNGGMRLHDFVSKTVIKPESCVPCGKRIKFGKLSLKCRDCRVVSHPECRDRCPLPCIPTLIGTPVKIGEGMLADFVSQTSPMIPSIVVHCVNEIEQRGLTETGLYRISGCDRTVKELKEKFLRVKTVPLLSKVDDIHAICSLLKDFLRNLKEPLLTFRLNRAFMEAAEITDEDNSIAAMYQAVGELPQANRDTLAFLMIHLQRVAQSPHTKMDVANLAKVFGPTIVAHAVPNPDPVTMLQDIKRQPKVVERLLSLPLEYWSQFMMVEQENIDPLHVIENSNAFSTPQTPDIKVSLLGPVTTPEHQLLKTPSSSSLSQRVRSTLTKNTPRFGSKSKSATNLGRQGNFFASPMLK

Mu-type opioid receptor = Mu-type opioid receptor (Homo sapiens, UniProt P35372); format: functional, cell-based;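 note: U2OS cells with beta-arrestin recruitment to OPRM1 by beta-gal complementation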
Chain of Mu-type opioid receptor (P35372 whole entry): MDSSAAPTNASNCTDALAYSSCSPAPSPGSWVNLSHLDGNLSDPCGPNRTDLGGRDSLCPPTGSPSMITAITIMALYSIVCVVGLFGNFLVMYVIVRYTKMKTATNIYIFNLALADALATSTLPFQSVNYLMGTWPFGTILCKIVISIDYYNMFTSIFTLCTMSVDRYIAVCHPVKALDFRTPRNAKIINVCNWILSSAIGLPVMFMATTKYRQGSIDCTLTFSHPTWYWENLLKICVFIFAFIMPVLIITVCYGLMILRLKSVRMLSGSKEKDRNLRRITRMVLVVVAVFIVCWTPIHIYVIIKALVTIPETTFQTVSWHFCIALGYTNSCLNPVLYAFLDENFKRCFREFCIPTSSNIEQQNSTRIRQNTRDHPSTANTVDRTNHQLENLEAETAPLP

COc1ccc(-c2cn3ccc4ccccc4c3n2)cc1
EC50 (cells [1]): > 67.5 µM (inactive)
IC50 [2]: > 67.5 µM (inactive)
EC50 [3]: > 67.5 µM (inactive)
EC50 [4]: > 67.5 µM (inactive)

CCOc1ccc(C(=O)Nc2cc(C)ccn2)cc1
AC50 [5]: 2.97 µM (active)
AC50 (HEK293): 2.17 µM (active)
AC50 [6]: 4.55 µM (active)
EC50 [7]: 1.19 µM (active)
AC50 [8]: 21 µM (active)
AC50 [9]: 24.6 µM (active)
AC50 [10]: 22.1 µM (active)
EC50 [11]: 2.45 µM (active)

Cc1cccc(NC(S)=NNC(=O)c2ccc3c(c2)OCO3)c1
IC50 [12]: > 122 µM (inactive)

O=C(O)c1ccc(/N=C/c2nc(-c3ccco3)oc2O)cc1
IC50 (Prothrombin): > 50 µM (not active)

Cc1cc(O)c(/C=N/OCc2ccc(Cl)cc2Cl)c(=O)o1
IC50 [13]: 50 µM (inactive)

CCOc1ccc(C(=O)Nc2ccc(N3CCN(C)CC3)cc2)cc1Br
IC50 (cells [14]): 31.4 µM (active)
CC50 [15]: > 20 µM (active)
IC50 (Bcl-2-like protein 10): 0.558 µM (active)

CCCNC(=O)N1[C@H](CO)[C@H](c2ccc(C3=CCCCC3)cc2)[C@H]1CNC(C)C
AC50 [16]: 5.26 µM (active)
AC50 [17]: 39.6 µM (active)

COc1ccccc1C#Cc1ccc([C@H]2[C@@H](C#N)N(C(=O)C3CC3)[C@H]2CO)cc1
AC50 [18]: 1.69 µM (active)
AC50 [19]: 0.692 µM (active)
AC50 [20]: 1.35 µM (active)

COc1ccc(CCNC(=O)/C=C/c2ccco2)cc1
IC50 (Protein Tat): > 100 µM (active)

Cc1ccc(S(=O)(=O)N2CCOCC2)cc1NC(=O)CNCc1cccnc1
EC50 [21]: 6.05 µM (active)
IC50 [22]: 108 µM (active)
EC50 (Mu-type opioid receptor): 92.5 µM (inactive)

COc1cccc(-c2cc(C(=O)Nc3c(C)nn(Cc4ccccc4)c3C)no2)c1
IC50 (Prothrombin): > 50 µM (not active)
